Laboratory results published in PubChem BioAssay (NCI).
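Dose response: 5 concentrations. Exposure: 48 h. Format: 96-well plates. Endpoint: linear interpolation; highest concentration if not reached. The concentration for full growth arrest is given as TGI.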

Assays:
Assay in all cases: NCI tumour cell line growth inhibition, 48 h
[1] = tested on: MDA-MB-231 breast
[2] = tested on: NCI/ADR-RES ovarian
[3] = tested on: DLD-1 colon
[4] = tested on: KM20L2 colon
[5] = tested on: XF 498 CNS
[6] = tested on: DMS 114 small cell lung

What does the source list for `COc1nc(Cl)nc(N[C@H](C)c2c3ccccc3cc3ccccc23)n1`?
TGI [1]: 34.4 µM; TGI [2]: 31.3 µM

Which TGI [3] does the source give for `CCOc1ccc2nc(NC(=O)C(=O)C(C(=O)c3ccccc3F)C3OC(=O)c4ccccc43)sc2c1` (centres undefined) here?
The TGI was > 100 µM.

And the TGI [4]?
The TGI was 71 µM.

What about the TGI [5] of the same compound?
Its TGI is 46.2 µM.

What does the source list for `COc1ccccc1NC(=O)C(=O)C(C(=O)c1ccccc1F)C1OC(=O)c2ccccc21` (centres undefined)?
TGI [3]: > 100 µM; TGI [6]: 64.3 µM; TGI [4]: 58.2 µM; TGI [5]: > 100 µM
